What was measured:
[1] = target: T1, PPARG/RXRA LBD heterodimer (Homo sapiens, UniProt P37231); assay: PPARγ-MED1 blockade assay (TR-FRET, biotinylated MED1 LxxLL peptide); type: biochemical; conditions: WT PPARG LBD/WT RXRA LBD, 80 nM Rosiglitazone, 3 hours
T1 construct: His-TEV-Q203-Y477; Uniprot ID P37231-2; made in house; host or cells: E. coli
T1 sequence (P37231 203-477 isoform P37231-2): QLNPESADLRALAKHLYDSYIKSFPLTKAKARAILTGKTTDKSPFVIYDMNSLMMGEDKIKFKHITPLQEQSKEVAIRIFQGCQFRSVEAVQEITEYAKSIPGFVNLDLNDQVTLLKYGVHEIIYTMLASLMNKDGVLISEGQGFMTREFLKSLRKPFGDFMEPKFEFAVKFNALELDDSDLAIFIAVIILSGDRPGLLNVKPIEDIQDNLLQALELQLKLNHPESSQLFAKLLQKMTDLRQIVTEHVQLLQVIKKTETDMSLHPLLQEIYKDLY
T1 sequence (P19793 228-462 partner limits assumed): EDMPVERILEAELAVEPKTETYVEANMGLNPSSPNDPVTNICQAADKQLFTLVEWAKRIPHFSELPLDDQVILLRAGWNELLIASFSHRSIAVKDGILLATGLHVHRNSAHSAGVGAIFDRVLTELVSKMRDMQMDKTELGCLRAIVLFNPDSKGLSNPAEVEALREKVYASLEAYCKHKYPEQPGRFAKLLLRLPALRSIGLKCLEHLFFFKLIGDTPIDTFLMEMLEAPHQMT
How it was run: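 TR-FRET measuring biotinylated MED1 LxxLL peptide association with 2 nM each His-PPARG LBD (Q203-Y477) and Flag-RXRA LBD (E228-T462), E. coli expressed. Read after 3 h incubation; ratios normalized to DMSO (0%) and GW9662 minimum (100%) for IC50 and maximal MED1 repulsion.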

[2] = system: ANGPTL4, a PPARG target gene, in HT1197 (RXRA S427F mutation) cells; assay: Bladder cancer pharmacodynamic assay, HT1197 cell assay (qPCR of ANGPTL4); type: cell-based; conditions: Homo sapiens, 24 hours, 100 nM compound, relative to DMSO control
How it was run: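 5637 (PPARG amplified) and HT1197 (RXRA S427F) cells treated 24 h with PPARG inverse agonists. FABP4 and ANGPTL4 expression measured by qPCR, normalised to TBP, and reported relative to DMSO control by ΔΔCt.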

[3] = target: T2, PPARG/RXRA LBD heterodimer (Homo sapiens, UniProt P37231); assay: PPARγ-NCOR1 recruitment assay (TR-FRET, biotinylated NCOR1 ID2 peptide); type: biochemical; conditions: 80 nM Rosiglitazone, 3 hours, read-out: PPARG-NCOR recruitment assay EC50
T2 construct: His-TEV-Q203-Y477; Uniprot ID P37231-2; made in house; host or cells: E. coli
How it was run: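 2 nM each of E. coli-expressed PPARG LBD (Q203-Y477) and RXRA LBD (WT or S427F, E228-T462) with biotinylated NCOR1 ID2 peptide, incubated 3 h; TR-FRET read at Ex/Em 615/665. Ratios normalized to DMSO (0%) and T0070907 maximum (100%) for EC50 and maximal recruitment.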
T2 sequence (O75376 2251-2273 partner, one chain of several): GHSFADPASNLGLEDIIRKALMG

SMILES	EC50 [1] [nM]	EC50 [3] [nM]	inhibition at 0.1 µM [2] [%]
N#Cc1ccc(Cl)c(-c2cc(=O)c3c(F)c(C(F)(F)F)c(F)cc3[nH]2)c1 [Example 32, 4-chloro-3-(5,7-difluoro-4-oxo-6-(trifluoromethyl)-1,4-dihydroquinolin-2-yl)benzonitrile]	100 to 1000	100 to 1000	31
N#Cc1ccc(Cl)c(-c2cc(=O)c3c(F)c(C4COC4)c(F)cc3[nH]2)c1 [Example 45, 4-chloro-3-(5,7-difluoro-6-(oxetan-3-yl)-4-oxo-1,4-dihydroquinolin-2-yl)benzonitrile]	100 to 1000	100 to 1000	66
Cc1ncc(-c2c(F)cc3[nH]c(-c4cc(C#N)ccc4Cl)cc(=O)c3c2F)cn1 [Example 42, 4-chloro-3-(5,7-difluoro-6-(2-methylpyrimidin-5-yl)-4-oxo-1,4-dihydroquinolin-2-yl)benzonitrile]	100 to 1000	100 to 1000	74
N#Cc1ccc(Cl)c(-c2cc(=O)c3c(F)c(-c4ccc(C(=O)O)cc4)c(F)cc3[nH]2)c1 [Example 75, 4-(2-(2-chloro-5-cyanophenyl)-5,7-difluoro-4-oxo-1,4-dihydroquinolin-6-yl)benzoic acid]	1000 to 10000	1000 to 10000	20
Cc1cn(-c2c(F)cc3[nH]c(-c4cc(C#N)ccc4Cl)cc(=O)c3c2F)cn1 [Example 30, 4-chloro-3-(5,7-difluoro-6-(4-methyl-1H-imidazol-1-yl)-4-oxo-1,4-dihydroquinolin-2-yl)benzonitrile]	100 to 1000	100 to 1000	39

Now from value to compound, other results behind:

EC50 [1] [nM]	EC50 [3] [nM]	SMILES	inhibition at 0.1 µM [2] [%]
1000 to 10000	1000 to 10000	CC(=O)N1CCN(c2c(F)cc3[nH]c(-c4cc(C#N)ccc4Cl)cc(=O)c3c2F)CC1 [Example 96, 3-(6-(4-acetylpiperazin-1-yl)-5,7-difluoro-4-oxo-1,4-dihydroquinolin-2-yl)-4-chlorobenzonitrile]	82
< 10	< 10	O=c1cc(-c2cc([N+](=O)[O-])ccc2Cl)[nH]c2ccccc12 [Example 14, 2-(2-chloro-5-nitrophenyl)quinolin-4(1H)-one]	38
1000 to 10000	1000 to 10000	N#Cc1ccc(Cl)c(-c2cc(=O)c3c(F)c(-c4nccc(=O)[nH]4)c(F)cc3[nH]2)c1 [Example 68, 4-chloro-3-(5,7-difluoro-4-oxo-6-(6-oxo-1,6-dihydropyrimidin-2-yl)-1,4-dihydroquinolin-2-yl)benzonitrile]	28
100 to 1000	100 to 1000	CN(C)C(=O)[C@@H]1CCCN(c2c(F)cc3[nH]c(-c4cc(C#N)ccc4Cl)cc(=O)c3c2F)C1 [Example 114, (R)-1-(2-(2-chloro-5-cyanophenyl)-5,7-difluoro-4-oxo-1,4-dihydroquinolin-6-yl)-N,N-dimethylpiperidine-3-carboxamide]	60
100 to 1000	100 to 1000	N#Cc1ccc(Cl)c(-c2cc(=O)c3c(F)c(-c4ccc(C(F)(F)F)cn4)c(F)cc3[nH]2)c1 [Example 55, 4-chloro-3-(5,7-difluoro-4-oxo-6-(5-(trifluoromethyl)pyridin-2-yl)-1,4-dihydroquinolin-2-yl)benzonitrile]	65
100 to 1000	100 to 1000	CN(C)C(=O)c1cc(-c2c(F)cc3[nH]c(-c4cc(C#N)ccc4Cl)cc(=O)c3c2F)ccc1F [Example 82, 5-(2-(2-chloro-5-cyanophenyl)-5,7-difluoro-4-oxo-1,4-dihydroquinolin-6-yl)-2-fluoro-N,N-dimethylbenzamide]	70
1000 to 10000	1000 to 10000	N#Cc1ccc(Cl)c(-c2cc(=O)c3c(F)c(N4CCS(=O)(=O)CC4)c(F)cc3[nH]2)c1 [Example 110, 4-chloro-3-(6-(1,1-dioxidothiomorpholino)-5,7-difluoro-4-oxo-1,4-dihydroquinolin-2-yl)benzonitrile]	37
